One experiment relates to A431 cells. In words: Inhibition of growth of A431 (neo-transfected, not expressing α-FR) cells. The experiment is classed as cell-based, human. The conditions noted are these: for A431: fold increased IC50 in presence of folic acid: 1 μM FA. The source says:
(§1) CB300945, the (RS)-C2-CH2OH analogue of the known cyclopenta[g]-quinazoline, CB300638 was synthesised as in Example 1. In addition, the C2-NH2 was made as a comparative example. […] The human A431-FBP cell line was transfected with the α-FR and sensitivity compared with the A431 cell line. Human nasopharengeal KB cells constitutively overexpress this receptor (see Bagnoli et al. Oncogene, 19, 4754-4763, 2000).

A further experiment has as its system A431-FBP cells. As to the kind of experiment: Inhibition of growth of A431-FBP cells (A431 transfected with the α-FR). The experiment is classed as cell-based, human. The conditions noted are these: for A431-FBP: fold increased IC50 in presence of folic acid: 1 μM FA; for activity in A431-FBP cells (in words): α-FR mediated uptake.
Excerpt: as §1

The test system of another experiment is KB cells. As to the kind of experiment: Inhibition of growth of KB cells (constitutively overexpress α-FR). The experiment is classed as cell-based, human. To be noted: for KB: fold increased IC50 in presence of folic acid: 1 μM FA.
Excerpt: as §1

In a further experiment the target is T1, α-FR of L1210-FBP cells (Mus musculus, UniProt P35846).
T1 construct: endogenous in cells; host or cells: mouse L1210-FBP leukaemia cells
As to the kind of experiment: Binding to the α-FR relative to folic acid, L1210-FBP cells. To be noted: >1 = binding greater than folic acid.

[1] abbreviates: 20 nM LV, read-out: Inhibition of cell growth, IC50, A431.
[2] abbreviates: Homo sapiens, A-431, 1 nM LV, read-out: Inhibition of cell growth, IC50, A431.
The mark [3] stands for this setting: Homo sapiens, A-431, read-out: Inhibition of cell growth, IC50, A431 + 1 μM FA, 1 nM LV, + 1 μM folic acid.
The mark [4] stands for this setting: Homo sapiens, A-431, read-out: Inhibition of cell growth, IC50, A431 + 1 μM FA, 20 nM LV, + 1 μM folic acid.
Setting [5] is: Homo sapiens, A-431, 1 nM LV, read-out: Inhibition of cell growth, IC50, A431-FBP.
Setting [6] is: Homo sapiens, A-431, read-out: Inhibition of cell growth, IC50, A431-FBP + 1 μM FA, 1 nM LV, + 1 μM folic acid.
Setting [7] is: Homo sapiens, A-431, read-out: Inhibition of cell growth, IC50, A431-FBP + 1 μM FA, 20 nM LV, + 1 μM folic acid.
Where [8] appears, read: Homo sapiens, KB, 1 nM LV, read-out: Inhibition of cell growth, IC50, KB.
The mark [9] stands for this setting: Homo sapiens, KB, read-out: Inhibition of cell growth, IC50, KB + 1 μM FA, 1 nM LV, + 1 μM folic acid.
The mark [10] stands for this setting: Homo sapiens, KB, read-out: Inhibition of cell growth, IC50, KB + 1 μM FA, 20 nM LV, + 1 μM folic acid.

The values below come from patent publication US8552016B2, “Anti-cancer cyclopenta(g)quinazoline compounds” (BTG International Limited, priority 2001, dated 2013).

Each structure is given as a SMILES string. Read-outs that look alike come from different tables or passages of the source.

T1 sequence (P35846 25-232): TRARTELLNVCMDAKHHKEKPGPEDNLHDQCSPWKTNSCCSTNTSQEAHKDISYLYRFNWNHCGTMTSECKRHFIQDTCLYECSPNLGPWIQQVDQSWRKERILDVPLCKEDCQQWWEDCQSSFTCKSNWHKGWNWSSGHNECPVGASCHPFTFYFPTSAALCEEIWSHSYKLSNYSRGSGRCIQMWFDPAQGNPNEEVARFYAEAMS

For the compound `C#CCN(Cc1cc2c(O)nc(C)nc2cc1C)c1ccc(C(=O)N[C@@H](CCc2nnn[nH]2)C(=O)O)c(F)c1` [ZD9331], the “A431: fold increased IC50 in presence of folic acid” value (from here on “A431: fold increased IC50”) in the experiment with A431 cells (1 nM LV) and with A431 cells (20 nM LV) was “(1) fold” throughout. Further, the IC50 (usually the point on the concentration scale where inhibition reaches its midpoint) turned out to be 0.061 ± 0.014 µM with A431 cells (1 nM LV, read-out: Inhibition of cell growth, IC50, A431); 0.082 ± 0.042 µM with A431 cells (setting [1]); 0.056 ± 0.025 µM in the experiment on A431 cells (read-out: Inhibition of cell growth, IC50, A431 + 1 μM FA, 1 nM LV, + 1 μM folic acid); 0.067 ± 0.029 µM in the experiment on A431 cells (read-out: Inhibition of cell growth, IC50, A431 + 1 μM FA, 20 nM LV, + 1 μM folic acid); 0.0088 ± 0.0052 µM with A431-FBP cells (1 nM LV, read-out: Inhibition of cell growth, IC50, A431-FBP); 0.018 ± 0.0097 µM in the experiment on A431-FBP cells (20 nM LV, read-out: Inhibition of cell growth, IC50, A431-FBP). In addition, the 50% inhibitory concentration (IC50) in the experiment on A431-FBP cells (read-out: Inhibition of cell growth, IC50, A431-FBP + 1 μM FA, 1 nM LV, + 1 μM folic acid) was 0.027 ± 0.0076 µM; in the experiment with A431-FBP cells (read-out: Inhibition of cell growth, IC50, A431-FBP + 1 μM FA, 20 nM LV, + 1 μM folic acid) it was 0.034 ± 0.0087 µM; with KB cells (1 nM LV, read-out: Inhibition of cell growth, IC50, KB), 0.0021 ± 0.0013 µM; with KB cells (20 nM LV, read-out: Inhibition of cell growth, IC50, KB) it was 0.0036 ± 0.0021 µM; in the experiment on KB cells (read-out: Inhibition of cell growth, IC50, KB + 1 μM FA, 1 nM LV, + 1 μM folic acid) it was 0.00641 ± 0.0035 µM; in the experiment on KB cells (read-out: Inhibition of cell growth, IC50, KB + 1 μM FA, 20 nM LV, + 1 μM folic acid), 0.012 ± 0.005 µM. For the same compound, the results for the “A431-FBP: fold increased sensitivity compared with A431” value (“A431-FBP: fold increased sensitivity” below) with A431-FBP cells (1 nM LV) and in the experiment with A431-FBP cells (20 nM LV) were “(7) fold” and “(4) fold”, respectively. Further, the “A431-FBP: fold increased IC50 in presence of folic acid” value (from here on “A431-FBP: fold increased IC50”) in the experiment on A431-FBP cells (1 nM LV) is listed as “(3) fold”; in the experiment with A431-FBP cells (20 nM LV) it was “(2) fold”. The “KB: fold increased IC50 in presence of folic acid” value (“KB: fold increased IC50” below) in the experiment on KB cells (1 nM LV) and in the experiment on KB cells (20 nM LV) was “(3) fold” in each case.

Regarding `C#CCN(c1ccc(C(=O)N[C@@H](CCC(=O)N[C@H](CCC(=O)O)C(=O)O)C(=O)O)cc1)C1CCc2cc3nc(N)[nH]c(=O)c3cc21` (mixture of isomers) [CB300944 (RS)], the “A431: fold increased IC50” value in the experiment on A431 cells (1 nM LV) and in the experiment with A431 cells (20 nM LV) was “(1) fold” in each case. Besides, the IC50 turned out to be 27 µM in the experiment with A431 cells (setting [1]); 24 ± 3.6 µM in the experiment on A431 cells (setting [2]); 23 µM in the experiment with A431 cells (Homo sapiens, A-431, 20 nM LV, read-out: Inhibition of cell growth, IC50, A431); 24 ± 2.9 µM in the experiment on A431 cells (setting [3]); 22 µM with A431 cells (setting [4]); 9.1 ± 0.83 µM in the experiment with A431-FBP cells (setting [5]). Further, the IC50 in the experiment on A431-FBP cells (Homo sapiens, A-431, 20 nM LV, read-out: Inhibition of cell growth, IC50, A431-FBP) was 8.3 ± 0.64 µM; with A431-FBP cells (setting [6]), 12 ± 2.1 µM; in the experiment with A431-FBP cells (setting [7]) it was 7.1 ± 1 µM; in the experiment on KB cells (setting [8]), 19 µM; in the experiment with KB cells (Homo sapiens, KB, 20 nM LV, read-out: Inhibition of cell growth, IC50, KB), 19 ± 0.58 µM; with KB cells (setting [9]), 19 ± 1.5 µM. In the experiment on KB cells (setting [10]), the IC50 is 19 ± 1.2 µM. In addition, the “A431-FBP: fold increased sensitivity” value in the experiment with A431-FBP cells (1 nM LV) and with A431-FBP cells (20 nM LV) was “(3) fold” throughout. Besides, the “A431-FBP: fold increased IC50” value in the experiment with A431-FBP cells (1 nM LV) and in the experiment with A431-FBP cells (20 nM LV) was “(1) fold” in each case. Moreover, the “activity in A431-FBP cells (in words)” value with A431-FBP cells is given as “very little activity”. Also, the “KB: fold increased IC50” value in the experiment on KB cells (1 nM LV) and in the experiment with KB cells (20 nM LV) was “(1) fold” in each case. The “relative binding affinity (inverse relative affinity) for the α-FR” value (“relative binding affinity” below) on α-FR of L1210-FBP cells amounted to 0.57.

Consider `C#CCN(c1ccc(C(=O)N[C@@H](CCC(=O)N[C@H](CCC(=O)O)C(=O)O)C(=O)O)cc1)C1CCc2cc3nc(C)[nH]c(=O)c3cc21` (mixture of isomers) [CB300638 (RS)], for which the “A431: fold increased IC50” value in the experiment on A431 cells (1 nM LV) and in the experiment on A431 cells (20 nM LV) was “(1) fold” in each case. The half-maximal inhibitory concentration (IC50) stood at 1.2 ± 0.21 µM in the experiment on A431 cells (setting [2]); 0.98 ± 0.23 µM with A431 cells (setting [3]); 0.0072 ± 0.001 µM with A431-FBP cells (setting [5]); 0.61 ± 0.012 µM with A431-FBP cells (setting [6]); 0.87 ± 0.29 µM in the experiment with A431-FBP cells (setting [7]); 0.0079 ± 0.001 µM in the experiment on KB cells (setting [8]). The IC50 was found to be 0.61 ± 0.012 µM with KB cells (setting [9]) and 0.76 ± 0.17 µM in the experiment on KB cells (setting [10]). Also, the “A431-FBP: fold increased sensitivity” value in the experiment with A431-FBP cells (1 nM LV) is “(170) fold”; with A431-FBP cells (20 nM LV), “(220) fold”. Moreover, the results for the “A431-FBP: fold increased IC50” value in the experiment with A431-FBP cells (1 nM LV) and with A431-FBP cells (20 nM LV) were “(85) fold” and “(130) fold”, respectively. In addition, in the experiment with A431-FBP cells, the “activity in A431-FBP cells (in words)” value is listed as “highly sensitive”. The “KB: fold increased IC50” value in the experiment on KB cells (1 nM LV) is listed as “(76) fold”; in the experiment on KB cells (20 nM LV) it was “(140) fold”. For the same compound, the “relative binding affinity” value on α-FR of L1210-FBP cells came to 0.57.

With `C#CCN(c1ccc(C(=O)N[C@@H](CCC(=O)N[C@H](CCC(=O)O)C(=O)O)C(=O)O)cc1)C1CCc2cc3nc(CO)[nH]c(=O)c3cc21` (mixture of isomers) [CB300945 (RS), N—{N-{4-[N-((6RS)-2-Hydroxymethyl-4-oxo-3,4,7,8-tetrahydro-6H-cyclopenta[g]quinazolin-6-yl)-N-(prop-2-ynyl)amino]benzoyl}-L-γ-glutamyl}-D-glutamic acid], the “A431: fold increased IC50” value in the experiment with A431 cells (20 nM LV) is “(1) fold”. Also, the 50% inhibitory concentration (IC50) in the experiment on A431 cells (setting [2]) was 7.2 ± 3.6 µM; in the experiment on A431 cells (setting [3]) it was 7.3 ± 3.3 µM; with A431 cells (setting [4]) it was 9.3 ± 3.5 µM; with A431-FBP cells (setting [5]), 0.0019 ± 0.0006 µM; with A431-FBP cells (setting [6]), 5.7 ± 1.3 µM; in the experiment on A431-FBP cells (setting [7]) it was 6.5 ± 0.86 µM. The IC50 in the experiment on KB cells (setting [9]) is 7.6 ± 1.3 µM; in the experiment on KB cells (setting [10]), 7.3 ± 2 µM. The “A431-FBP: fold increased sensitivity” value is “(3800) fold” in the experiment on A431-FBP cells (1 nM LV) and “(4700) fold” with A431-FBP cells (20 nM LV). Also, the “A431-FBP: fold increased IC50” value in the experiment with A431-FBP cells (1 nM LV) and with A431-FBP cells (20 nM LV) was “(3100) fold” each time. In the experiment with A431-FBP cells, the “activity in A431-FBP cells (in words)” value was “highly potent”. Further, the “KB: fold increased IC50” value is “(2200) fold” in the experiment on KB cells (1 nM LV) and “(2100) fold” in the experiment with KB cells (20 nM LV). The “relative binding affinity” value at α-FR of L1210-FBP cells turned out to be 0.71.

With `C#CCN(c1ccc(C(=O)N[C@@H](CCC(=O)N(C)[C@@H](CCC(=O)O)C(=O)O)C(=O)O)cc1)C1CCc2cc3nc(CO)[nH]c(=O)c3cc21` (mixture of isomers) [CB300960 (R, S), N—{N-{4-[N-((6RS)-2-hydroxymethyl-4-oxo-3,4,7,8-tetrahydro-6H-cyclopenta[g]quinazolin-6-yl)-N-(prop-2-ynyl)amino]benzoyl}-L-γ-glutamyl}-N-methyl-L-glutamic acid], the “A431: fold increased IC50” value in the experiment on A431 cells (20 nM LV) is listed as “(1) fold”. For the same compound, in the experiment on A431-FBP cells (20 nM LV), the “A431-FBP: fold increased IC50” value is “(180) fold”. For the same compound, the IC50 with A431-FBP cells (setting [7]) came out at 5.1 µM.
